Test results published in US20170007559A1, “COMPOSITIONS AND METHODS FOR PROTECTING COLONIC EPITHELIAL BARRIER FUNCTION” (The University of Tennessee Research Foundation, priority 2015, published 2017).

Experiments:
[1] = system: colonic epithelial TJs, AJs and actin cytoskeleton; assay: Immunofluorescence of TJ and AJ proteins and F-actin in mouse intestine after total body irradiation (4 Gy); assay type: in vivo; conditions: 20 mM NAC in liquid diet for 5 days prior to TBI 4 Gy, 2 hours post irradiation
Experimental: (§1) In the first study, adult female (12-14 week's age) mice were subjected to total body irradiation (4 Gy). At 2-24 hours post-irradiation (IR), the integrity of colonic epithelial TJs, AJs and actin cytoskeleton was examined. In a second study, mice were randomized to four groups: Sham (control), IR, NAC and NAC+IR, and fed a liquid diet with (NAC and NAC+IR) or without (Sham and IR) 20 mM NAC for 5 days prior to irradiation. IR and NAC+IR mice were subjected to total body irradiation (4 Gy), while Sham and NAC mice were sham-treated. At 2 hours post-irradiation, colon and ileum were collected and examined for oxidative stress and epithelial junctional integrity. At the end of experiment, gut permeability was measured as described below. Colon and ileum segments were stored frozen for further analyses.
Cryo-sections of colon (10 μm thickness) and ileum (12 μm thickness) were fixed in acetone methanol mixture (1:1) at […] for 2 min and rehydrated in phosphate buffered saline (PBS). Sections were permeabilized with 0.5% Triton X-100 in PBS for 15 min and blocked in 4% non-fat milk in TBST (20 mM Tris, pH 7.2 and 150 mM NaCl). It was then incubated for one hour with primary antibodies (mouse monoclonal anti-occludin and rabbit polyclonal anti-ZO-1 antibodies or mouse monoclonal E-cadherin and rabbit polyclonal anti-β-catenin antibodies), followed by incubation for one hour with secondary antibodies (AlexaFluor-488-conjugated anti-mouse IgG and Cy3-conjugated anti-rabbit IgG antibodies from Molecular Probes, Eugene, Oreg.) containing Hoechst 33342. The fluorescence was examined by using a confocal microscope (Zeiss 710) and images from x-y sections (1 μm) were collected using Zen software. Images were stacked using the Image J software (NIH) and processed by Adobe Photoshop (Adobe Systems Inc., San Jose, Calif.).
Studies were performed to evaluate the effect of RP-1 on radiation-induced redistribution of TJ and AJ proteins in mouse colon in vivo. Mice were subjected to TBI (4 Gy); in some groups, animals received a one-time injection of RP-1 (0.1 mg/kg) 30 min prior to IRR. At 2 hours post-IRR, cryosections of colon were stained for TJ and AJ proteins, images collected by confocal microscopy and fluorescence measured by densitometric analysis.

[2] = system: detergent-insoluble fractions of TJ and AJ proteins; assay: Immunoblot of TJ and AJ proteins in detergent-insoluble fraction of distal colonic mucosa after total body irradiation; assay type: in vivo, mouse; conditions: 20 mM NAC in liquid diet for 5 days prior to TBI 4 Gy, 2 hours post irradiation
Experimental: as §1, with “Colon and ileum segments were stored frozen for further analyses.” left out
Actin-rich detergent-insoluble fraction was prepared as described previously (Elias, B. C.; Suzuki, T.; Seth, A.; Giorgianni, F.; Kale, G.; Shen, L.; Turner, J. R.; Naren, A.; Desiderio, D. M.; Rao, R. Phosphorylation of Tyr-398 and Tyr-402 in occludin prevents its interaction with ZO-1 and destabilizes its assembly at the tight junctions. J Biol Chem 284:1559-1569; 2009; Kale, G.; Naren, A. P.; Sheth, P.; Rao, R. K. Tyrosine phosphorylation of occludin attenuates its interactions with ZO-1, ZO-2, and ZO-3. Biochem Biophys Res Commun 302:324-329; 2003.). […] Protein content was measured by BCA method (Pierce Biotechnology, Rockford, Ill.). […]

[3] = system: intestinal mucosal barrier function; assay: Gut permeability in vivo, vascular-to-luminal flux of FITC-inulin after total body irradiation; design: species or system mouse
Experimental: as §1, with “analyses. Mucosal barrier dysfunction was evaluated by measuring gut permeability to FITC-inulin (6 kDa). On the last day of experiment, mice were intravenously injected with FITC-inulin (50 mg/ml solution; 2 μl/g body weight) via tail vein. One hour after injection, blood samples were collected by cardiac puncture under isoflurane anesthesia for plasma preparation. Luminal contents from colon and ileum were flushed with 0.9% saline. Fluorescence in plasma and luminal flushing was measured using fluorescence plate reader. Fluorescence values in the luminal flushing were normalized to fluorescence values in corresponding plasma samples and calculated as percent of amount injected.” for “analyses.”

colonic loops = assay: Inulin absorption from the lumen of isolated colonic loops of irradiated mice; assay type: in vivo, mouse; conditions: loops prepared 3 hours post irradiation from NAC-fed, incubated 75 min
Experimental: At 3 hours post irradiation, colonic loops were prepared and filled with 0.15 ml of 0.9% saline containing FITC-inulin (0.05 mg/ml) and incubated for 75 min in an incubator. Luminal contents were measured for fluorescence to evaluate inulin absorption from colonic lumen.

[4] = system: reduced and oxidized protein thiols; assay: Protein thiol assay in colon and ileum after total body irradiation; assay type: in vivo, mouse; conditions: TBI 4 Gy, 2 hours post irradiation
Experimental: as §1, with “analyses. Protein thiols in colonic sections were assessed as described before. Reduced protein thiols were evaluated by staining cryosections colon with BODIPY FL-N-(2-aminoethyl) maleimide (Flm) and confocal microscopy at excitation and emission wavelengths, 490 nm and 534 nm, respectively. For oxidized protein thiols, the reduced protein thiol was first alkylated with N-ethylmaleimide followed by reduction of oxidized protein thiols with tris (2-carboxyethyl) phosphine prior to staining with Flm. […] Fluorescence images collected and fluorescence quantitated by Image J software.” for “analyses.”

Caco-2 cell monolayers = assay: Radiation-induced redistribution of TJ proteins in Caco-2 cell monolayers; assay type: cell-based; conditions: NAC 10 mM pretreatment for one hour, radiation 4 Gy
Experimental: Therefore, we evaluated the effect of radiation on barrier function and TJ proteins in Caco-2 and m-ICC12 cell monolayers in vitro. Barrier function was evaluated by measuring transepithelial electrical resistance (TER) and transepithelial flux of FITC-inulin in cell monolayers grown on transwell inserts. Cell monolayers were also fixed and stained for occludin and ZO-1 for confocal microscopy.
The effect of LPA was also tested in m-ICC12 cells at varying doses of radiation. LPA blocked IRR-induced redistribution of ZO-1 (FIG. 14C). […] These models can be used for further mechanistic studies.

SMILES: CC(=O)N[C@@H](CS)C(=O)O [NAC, N-acetyl L-cysteine]
- radiation-induced redistribution of Cldn-3 ([1]; colon and ileum): blocked
- radiation-induced redistribution of E-cadherin and β-catenin from the intercellular junctions ([1]; colon and ileum): absent
- radiation-induced redistribution of occludin and ZO-1 from the intercellular junctions ([1]; colon and ileum): almost a complete attenuation
- radiation-induced loss of F-actin (actin cytoskeleton), colon ([1]; colon): almost complete
- radiation-induced loss of F-actin (actin cytoskeleton), ileum ([1]; ileum): only partially protected
- radiation-induced loss of detergent-insoluble fractions of TJ and AJ proteins [2]: blocked
- mucosal permeability in colon or ileum, NAC by itself ([3]; NAC-fed, sham-treated mice (no irradiation)): no significant influence
- radiation-induced increase in colonic mucosal permeability to FITC-inulin ([3]; colon, 20 mM NAC in liquid diet for 5 days prior to TBI 4 Gy, in vivo flux): effectively attenuated
- radiation-induced increase in inulin permeability in the ileum ([3]; ileum, NAC supplementation in diet prior to TBI 4 Gy, in vivo flux): blocked
- radiation-induced increase in inulin absorbed from the lumen of colonic loops (colonic loops): absent
- radiation-induced decrease in stain for reduced protein thiols and increase in stain for oxidized protein thiols ([4]; NAC fed mice, confocal images): absent
- radiation-induced conversion of reduced protein thiols into oxidized protein thiols, densitometric analysis of fluorescence ([4]; NAC feeding): attenuates
- radiation-induced loss of junctional occludin and ZO-1 (Caco-2 cell monolayers): significantly blocked
